In US4490376A, “Substituted ethenyl derivatives of 1H-pyrazolo-[1,5-a]pyrimidine having gastroenteric activity, compositions thereof, and methods of using the same” (Farmitalia Carlo Erba S.p.A, priority 1982, dated 1984):

How the values were obtained:
[1] = approximate acute toxicity (LD50), single administration; conditions: in vivo, po; mouse; per os; single administration of increasing doses; measured on the seventh day
Description: In view of their high therapeutic index, the compounds of the invention can be used safely in medicine. For example, the approximate acute toxicity (LD50) of the compound 1-phenyl-5-trans-[2-(3-pyridyl)-ethenyl]-1H,7H-pyrazolo [1,5-a]pyrimidine-7-one (FCE 21542) in the mouse, determined by single administration of increasing doses and measured on the seventh day after the day of treatment, is higher than 400 mg/kg per os. Analogous toxicity data have been found for other compounds of the invention. The compounds of the invention can be administered in a variety of dosage forms, e.g. orally, in the form of tablets, capsules, sugar or film coated tablets, liquid solutions or suspensions, rectally, in the form of suppositories, parenterally, e.g. intramuscularly, or by intravenous injection or infusion. The dosage depends on the age, weight, conditions of the patient and administration route; for example the dosage adopted for oral administration to adult humans may range from about 50 to about 200 mg pro dose, from 1 to 5 times daily. The invention includes also pharmaceutical compositions comprising a compound of the invention in association with a pharmaceutically acceptable excipient (which can be a carrier or diluent).

gastric secretion = test: inhibition of gastric secretion, pylorus ligature technique (Shay et al.), gastric antisecretory activity; type: in vivo, Sprague-Dawley male rats; conditions: rat; intraduodenal at the time of pylorus ligature; 4 hours; approximate ED50; read-out: Gastric anti-secretory activity ED50 i.d.
Description: (§1) The compounds of the present invention are active on the gastroenteric system, in particular they are endowed with anti-ulcerogenic and gastric anti-secretory activity and are therefore useful in therapy, for example in the prevention and treatment of peptic, e.g. duodenal, gastric and exophageal, ulcers and to inhibit gastric acid secretion. The compounds of the invention are also useful for reducing the undesirable gastrointestinal sideeffects resulting from systemic administration of antiinflammatory prostaglandin synthetase inhibitors and may be, therefore, used for this purpose in association with them. […] Six Sprague-Dawley male rats (100-120 g) fasted 24 hours were used for the experiment: a square flexible small-mesh were netting was used for the immobilization and 4 hours after the immobilization the rats were sacrificed, their stomachs were removed and the lesions counted under a dissecting microscope. […] Gastric antisecretory activity was evaluated in rats by the pylorus ligature technique. […] Four hours after the ligature the rats were sacrificed, the stomach secretion was collected and centrifuged at 3500 r.p.m. for 10 minutes, and the volume, less sediment, was determined.
The amount of the free hydrochloric acid in the gastric juice was determined by titration against 0.01N sodium hydroxide to pH 7.0 on the pH-meter.

restraint ulcers = test: inhibition of restraint ulcers in rats (Bonfils et al.), anti-ulcerogenic activity; type: in vivo, Sprague-Dawley male rats; conditions: po; rat; p.o. one hour before immobilization; lesions counted 4 hours after immobilization; approximate ED50; read-out: Antiulcerogenic activity ED50 p.o.
Description: as §1

Q: With `O=c1cc(/C=C/c2cccnc2)nc2ccn(-c3ccccc3)n12` [FCE 21542, 1-phenyl-5-trans-[2-(3-pyridyl)-ethenyl]-1H,7H-pyrazolo[1,5-a]pyrimidine-7-one] as the molecule, how does the LD50 at 168 h [1] read?
A: The LD50 at 168 h was greater than 400 mg/kg.

Q: And the ED50 (gastric secretion)?
A: The ED50 was roughly 3.2 mg/kg.

Q: What about the ED50 (restraint ulcers) of the same molecule?
A: The ED50 was roughly 7 mg/kg.
